The subject of data set [1] is Plasmodium falciparum. In words: Antimalarial activity against chloroquine-sensitive Plasmodium falciparum GHA infected in human erythrocytes assessed as parasite growth after 72 hrs by malstat reagent based spectrophotometric method. The data set is classed as functional, organism-based.
Data set [2] deals with MRC5. Nature of the data set: Cytotoxicity against human MRC5 cells after 4 to 7 days using alamar blue/resazurin staining by fluorescence assay. The data set is classed as cell-based. In general terms: Resazurin is reduced to fluorescent resorufin, in cell work by metabolically active cells.
The test system of data set [3] is Leishmania infantum. In words: Antiparasitic activity against amastigotes of Leishmania infantum infected in mouse peritoneal macrophages after 5 days using giemsa staining by microscopic analysis. The class given is functional, organism-based.
Data set [4] has as its system Trypanosoma brucei. In words: Antiparasitic activity against trypomastigote form of drug-sensitive Trypanosoma brucei assessed as inhibition of parasite growth after 4 days using alamar blue/resazurin staining by fluorimetric method. The data set is classed as functional, organism-based.
Data set [5] is described as follows: Solubility of the compound. The class given is physicochemical.
The nature of data set [6]: Selectivity index, ratio of IC50 for human MRC5 cells to IC50 for drug-sensitive trypomastigotes of Trypanosoma brucei. The class given is toxicity, cell-based. The following applies: read-out: Ratio IC50.
Data set [7] concerns Trypanosoma cruzi. In words: Antiparasitic activity against nifurtimox-sensitive amastigotes of Trypanosoma cruzi Tulahuen expressing LacZ gene infected in human MRC5 cells using chlorophenolred b-Dgalacto-pyranoside as substrate by colorimetric method. The class given is functional, organism-based.
Data set [8] in a line: Solubility of the compound in 13% DMSO/water. The class given is physicochemical. The settings on record: buffer.
Data set [9] in a line: Solubility of the compound in 100% DMSO. The data set is classed as physicochemical.
A short description of data set [10]: Selectivity index, ratio of IC50 for human MRC5 cells to IC50 for nifurtimox-sensitive amastigotes of Trypanosoma cruzi. The class given is toxicity, cell-based. The settings on record: read-out: Ratio IC50.
Data set [11] in a line: Selectivity index, ratio of IC50 for human MRC5 cells to IC50 for chloroquine-sensitive Plasmodium falciparum GHA. The data set is classed as toxicity, cell-based. The settings on record: read-out: Ratio IC50.
[12] abbreviates: Plasmodium falciparum, GHA, 72 h.
[13] abbreviates: Trypanosoma cruzi, Tulahuen, MRC5.

A word on the IC50: it is the concentration that gives 50% inhibition. As to `O=C(C1=NN(c2ccccc2)C2C3N(c4ccccc4)N=C(C(=O)c4ccccc4)N3c3ccccc3N12)c1ccccc1` (configuration not stated), the IC50 worked out at 27.7 µM in data set [1] (setting [12]); 17.6 µM in data set [2] (Homo sapiens, MRC5); 32.5 µM in [3] (Leishmania infantum, 120 h); 2.03 µM in [4] (Trypanosoma brucei, 96 h); 64 µM in [7] (setting [13]). The solubility result in data set [5] and in data set [8] was “soluble” in each case. Besides, the selectivity ratio in data set [6] amounted to 2.
With `C1=NN(c2ccccc2)C2C3N(C=NN3c3ccccc3)c3ccccc3N12` (configuration not stated), the IC50 in [1] (setting [12]) amounted to 29.8 µM; in data set [2] (Homo sapiens, MRC5), 64 µM; in data set [3] (Leishmania infantum, 120 h), 64 µM; in data set [4] (Trypanosoma brucei, 96 h) it was 64 µM; in [7] (setting [13]) it was 64 µM. Besides, in data set [8], the solubility entry is on record as “soluble”.
In the case of `COC(=O)C1=NN(c2ccccc2)C2=CNc3c(C)cccc3N21`, the IC50 in [1] (setting [12]) stood at 64 µM; in data set [2] (Homo sapiens, MRC5), 64 µM; in data set [3] (Leishmania infantum, 120 h) it was 64 µM; in [4] (Trypanosoma brucei, 96 h), 64 µM; in [7] (setting [13]), 64 µM. The solubility result in data set [8] is reported as “soluble”.
Regarding `COC(=O)C1=NN(c2ccccc2)C2C3N(c4ccccc4)N=C(C(=O)OC)N3c3[nH]c(-c4ccccc4)cc3N12` (configuration not stated), the IC50 is 6.87 µM in data set [1] (setting [12]); 64 µM in [2] (Homo sapiens, MRC5); 32.5 µM in [3] (Leishmania infantum, 120 h); 64 µM in data set [4] (Trypanosoma brucei, 96 h); 64 µM in [7] (setting [13]). In data set [8], the solubility entry is “soluble”.
For the compound `CC(=O)C1=NN(c2ccccc2)C2C3N(c4ccccc4)N=C(C(C)=O)N3c3[nH]c(-c4ccccc4)cc3N12` (configuration not stated), the IC50 in [1] (setting [12]) was 2.15 µM; in data set [2] (Homo sapiens, MRC5) it was 64 µM; in [3] (Leishmania infantum, 120 h), 32.5 µM; in data set [4] (Trypanosoma brucei, 96 h), 64 µM; in data set [7] (setting [13]), 64 µM. The solubility result is “Insoluble” in data set [9] and “soluble” in data set [5].
`CCOC(=O)C1=NN(c2ccc(Cl)cc2)C2C3N(c4ccc(Cl)cc4)N=C(C(=O)OCC)N3c3[nH]c(-c4ccccc4)cc3N12` (configuration not stated): the IC50 in [1] (setting [12]) amounted to 26.9 µM; in data set [2] (Homo sapiens, MRC5), 64 µM; in data set [3] (Leishmania infantum, 120 h) it was 64 µM; in data set [4] (Trypanosoma brucei, 96 h), 32.2 µM; in data set [7] (setting [13]) it was 40.3 µM. The solubility result in data set [8] is “soluble”.
As to `C1=C(c2ccccc2)NC2=NC=C3N(c4ccccc4)N=C(c4ccccc4)N3C12` (configuration not stated), the IC50 in data set [1] (setting [12]) was 64 µM; in [2] (Homo sapiens, MRC5), 64 µM; in data set [3] (Leishmania infantum, 120 h), 64 µM; in data set [4] (Trypanosoma brucei, 96 h), 64 µM; in data set [7] (setting [13]), 64 µM. In addition, the solubility entry in [9] was “Insoluble”.
For the compound `COC(=O)C1=NN(c2ccccc2)C2=CN=C3NC(c4ccccc4)=CC3N21` (configuration not stated), the IC50 was 64 µM in data set [1] (setting [12]); 64 µM in [2] (Homo sapiens, MRC5); 64 µM in [3] (Leishmania infantum, 120 h); 64 µM in [4] (Trypanosoma brucei, 96 h); 64 µM in [7] (setting [13]). In addition, in [9], the solubility entry is recorded as “Insoluble”.
Turning to `COC(=O)C1=NN(c2ccc(Cl)cc2)C2C3N(c4ccc(Cl)cc4)N=C(C(=O)OC)N3c3c(C)cccc3N12` (racemic), the IC50 came to 42.6 µM in [1] (setting [12]); 64 µM in data set [2] (Homo sapiens, MRC5); 64 µM in [3] (Leishmania infantum, 120 h); 64 µM in data set [4] (Trypanosoma brucei, 96 h); 64 µM in data set [7] (setting [13]). Besides, in data set [8], the solubility result is given as “soluble”.
Take `COC(=O)C1=NN(c2ccccc2)[C@@H]2N1c1ccccc1N1C(C(=O)OC)=NN(c3ccccc3)[C@@]21C` (racemic): the IC50 amounted to 11.6 µM in data set [1] (setting [12]); 64 µM in data set [2] (Homo sapiens, MRC5); 64 µM in data set [3] (Leishmania infantum, 120 h); 64 µM in data set [4] (Trypanosoma brucei, 96 h); 4.29 µM in data set [7] (setting [13]). For the same compound, the solubility result in data set [8] is reported as “soluble”. In data set [10], the selectivity ratio came out at 6.
As to `CCOC(=O)C1=NN(c2ccc(Cl)cc2)[C@@H]2N1c1ccccc1N1C(C(=O)OCC)=NN(c3ccc(Cl)cc3)[C@@]21C` (racemic), the 50% inhibitory concentration (IC50) in data set [1] (setting [12]) amounted to 0.5 µM; in data set [2] (Homo sapiens, MRC5), 64 µM; in [3] (Leishmania infantum, 120 h), 64 µM; in data set [4] (Trypanosoma brucei, 96 h), 64 µM; in data set [7] (setting [13]), 64 µM. The solubility result in data set [5] and in [8] was “soluble” in each case. Moreover, the selectivity ratio in data set [11] came out at 128.
In the case of `CC(=O)C1=NN(c2ccccc2)[C@@H]2N1c1ccccc1N1C(C(C)=O)=NN(c3ccccc3)[C@@]21C` (racemic), the IC50 was found to be 29.2 µM in data set [1] (setting [12]); 64 µM in data set [2] (Homo sapiens, MRC5); 24.1 µM in [3] (Leishmania infantum, 120 h); 32.2 µM in data set [4] (Trypanosoma brucei, 96 h); 33.7 µM in data set [7] (setting [13]). For the same compound, the solubility entry in data set [8] is recorded as “soluble”.
Turning to `C[C@]12[C@@H]3N(c4ccccc4)N=C(C(=O)c4ccccc4)N3c3ccccc3N1C(C(=O)c1ccccc1)=NN2c1ccccc1` (racemic), the IC50 in data set [1] (setting [12]) stood at 8.23 µM; in data set [2] (Homo sapiens, MRC5) it was 64 µM; in data set [3] (Leishmania infantum, 120 h), 8 µM; in [4] (Trypanosoma brucei, 96 h), 2.06 µM; in data set [7] (setting [13]), 10.1 µM. Further, in data set [6], the selectivity ratio is 2. For the same compound, the solubility result in data set [8] was “soluble”.
With `COC(=O)C1=NN(c2ccc(Cl)cc2)C2(C1)Nc1ccccc1N1C(C(=O)OC)=NN(c3ccc(Cl)cc3)C12` (racemic), the IC50 is 64 µM in data set [1] (setting [12]); 64 µM in [2] (Homo sapiens, MRC5); 64 µM in data set [3] (Leishmania infantum, 120 h); 64 µM in [4] (Trypanosoma brucei, 96 h); 64 µM in [7] (setting [13]). For the same compound, in data set [8], the solubility entry is given as “soluble”.
For `CC(=O)C1=NN(c2ccccc2)C2C3N(c4ccccc4)N=C(C(C)=O)N3c3ccccc3N12` (stereo in doubt; 4a), the IC50 in data set [1] was 64 µM; in data set [2] (mrc5) it was 64 µM; in [3] (Leishmania infantum, 120 h), 32 µM; in [4], 64 µM; in [7] (mrc5), 38.1 µM. Further, the solubility entry in [8] was “soluble”.
As to `CC(=O)C1=NN(c2ccccc2)C2C3N(c4ccccc4)N=C(C(C)=O)N3c3ccccc3N12` (stereo in doubt; 4b), the IC50 in data set [1] amounted to 8.48 µM; in data set [2] (mrc5), 29.6 µM; in [3], 32.5 µM; in data set [4], 8.06 µM; in data set [7] (mrc5), 12.6 µM.
Regarding `COC(=O)C1=NN(c2ccccc2)C2C3N(c4ccccc4)N=C(C(=O)OC)N3c3ccccc3N12` (stereo in doubt; 4d), the IC50 in [1] is 12.3 µM; in data set [2] (Homo sapiens, MRC5), 64 µM; in data set [3] (Leishmania infantum, 120 h), 64 µM; in data set [4] (Trypanosoma brucei, 96 h), 64 µM; in data set [7] (setting [13]) it was 64 µM. In addition, the solubility result in data set [8] is given as “soluble”. For the same compound, the selectivity ratio in [10] worked out at 6.
As to `COC(=O)C1=NN(c2ccccc2)C2C3N(c4ccccc4)N=C(C(=O)OC)N3c3ccccc3N12` (stereo in doubt; 4e), the IC50 in [1] is 25.6 µM; in data set [2] (mrc5), 33.1 µM; in [4], 34.6 µM; in data set [7] (mrc5), 42.5 µM.
With `CCOC(=O)C1=NN(c2ccc(Cl)cc2)C2C3N(c4ccc(Cl)cc4)N=C(C(=O)OCC)N3c3ccccc3N12` (stereo in doubt; 4f), the IC50 in [1] worked out at 37.3 µM; in data set [2] (mrc5) it was 64 µM; in data set [3] (Leishmania infantum, 120 h), 64 µM; in data set [4], 64 µM; in [7] (mrc5) it was 64 µM. Besides, the solubility entry in data set [8] is “soluble”.
Regarding `CCOC(=O)C1=NN(c2ccc(Cl)cc2)C2C3N(c4ccc(Cl)cc4)N=C(C(=O)OCC)N3c3ccccc3N12` (stereo in doubt; 4g), the IC50 was 18.6 µM in [1]; 12.4 µM in [2] (mrc5); 32 µM in data set [3]; 2.01 µM in data set [4]; 8.75 µM in data set [7] (mrc5). Moreover, the solubility entry in data set [5] was “soluble”. Besides, the selectivity ratio in data set [6] is 2; in data set [10], 6.

The values are drawn from ChEMBL document CHEMBL1938376, “In vitro and in silico studies of polycondensed diazine systems as anti-parasitic agents” (Bioorg Med Chem Lett, 2012).
